According to patent publication US10538516B2, “Oxadiazole derivative and pharmaceutical containing same” (National Center for Geriatrics and Gerontology, priority 2015, dated 2020):

Each molecule was assayed against T1, GAβ-dependent amyloid fibril formation (Human Aβ1-40 + GM1-containing liposome) (Homo sapiens, UniProt P05067) (assay: Thioflavin T (ThT) assay of GAβ-dependent amyloid fibril formation (Aβ1-40 with GM1-containing liposome)). Details: @5 μM; read-out: ThT Inhibitory activity (% inhibition).
T1 construct: Human Aβ1-40 (cat. #4307-v, prepared by Peptide Institute); purchased Peptide Institute 4307-v
T1 sequence (P05067 672-711 limits assumed): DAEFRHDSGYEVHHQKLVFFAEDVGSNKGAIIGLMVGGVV
Format: biochemical
Experimental: <3. Evaluation of the Compounds Based on the Inhibitory Activity Against Amyloid Fibril Formation in Thioflabin T (ThT) Assay>
Inhibitory activity against GAβ-dependent amyloid fibril formation of the above compounds 1 to 133 and 142 to 267 were evaluated in ThT assay.
(1) Preparation of Aβ Solution
Human Aβ1-40 (cat. #4307-v, prepared by Peptide Institute) was dissolved in a 0.02% ammonia solution (400 μM), and the mixture was treated in an ultracentrifuge (S110AT rotor, Hitachi) at 100,000 rpm for 3 hours. Approximately two-thirds of the upper layer of the supernatant was recovered and protein concentration was measured. The Aβ solution was aliquoted and stored at −80° C. until use, was melted immediately before use, and was diluted to 75 μM using phosphate buffer (PBS: cat. #10010, manufactured by Life Technologies).
(2) Preparation of GM1-Containing Liposome
Using a mixed solution of chloroform/methanol (1:1) as a solvent, a mixed solution of 100 mM each of cholesterol and sphingomyelin (both manufactured by Sigma-Aldrich) was prepared. To this mixed solution, GM 1 (cat. #1061, manufactured by Matreya Co.) was dissolved to make a solution of 50 mM concentration. This lipid mixed solution was aliquoted into glass test tubes and stored at −20° C. until use, was melted before use, was mixed with chloroform/methanol mixture (1:1) and mixed, and then the solvent was removed by applying nitrogen gas to the suspension. The dried lipid mixture was resuspended in PBS to be a GM1 concentration of 2.5 mM, and frozen and thawed 5 times with liquid nitrogen. The lipid suspension was centrifuged at 15,000 rpm for 10 minutes and the precipitate was resuspended in PBS to be a GM1 concentration of 2.5 mM. Using an ultrasonic crusher (XL-2000, MISONIX Co., Ltd.) equipped with a microchip, ultrasonic treatment was repeated on ice for 10 seconds until the suspension became transparent, and GM1-containing liposome was prepared. Immediately prior to use, PBS was added and diluted to a GM 1 concentration of 75 μM.
(3) Preparation of Compound Solution
Compounds 1 to 133 and 142 to 267 were prepared as 10 mM and 2 mM solution in DMSO, respectively. And each solution was diluted to 75 μM or 15 μM with PBS immediately prior to use.
(4) GAβ-Dependent Amyloid Fibril Formation
To a 96-well microplate, 5 μl each of the 75 μM Aβ solution prepared above (1), the compound solution prepared in (3) or 0.75% DMSO was mixed and incubated at room temperature for 10 minutes. Then, 5 μl each of 750 μM GM1-containing liposome prepared in (2) was added to each well and incubated at 37° C. for 18 hours.
ThT (manufactured by Sigma-Aldrich) was adjusted to 5 μM using 50 mM glycine-NaOH buffer (pH 8.5). Immediately before measurement, 10 μl from each well of (4) was transferred to a 96-well black plate. 50 μl of 5 μM ThT solution was added from each injector to each well using a multi-plate reader (ARVO-HTS, manufactured by Perkin Elmer), and then the optimal fluorescence of ThT bound to amyloid fiber (excitation wavelength 430 nm, fluorescence wavelength 490 nm) was measured.
The fluorescence intensity of ThT indicates the degree of amyloid fibrils formation. By calculating the ratio of the ThT fluorescence intensity between addition of the compound and without addition of the compound, the inhibition rate against amyloid fibril formation by the compound was calculated.
`NC(Cc1c[nH]c2ccccc12)c1nc(-c2ccc3c(c2)OC(F)(F)O3)no1` (stereo not shown) [Compound 40, 1-{3-(2,2-difluorobenzo[d] [1,3]dioxol-5-yl)-1,2,4-oxadiazol-5-yl}-2-(1H-indol-3-yl)ethan-1-amine] showed an inhibition at 5 µM of 38%.

Same assay, conditions: @25 μM; read-out: ThT Inhibitory activity (% inhibition)
With `O=C(N[C@@H](CO)c1nc(-c2ccc(OC(F)(F)F)cc2)no1)c1ccc(Cl)cc1` [Compound 39, (S)-4-chloro-N-(2-hydroxy-1-{3-[4-(trifluoromethoxy)phenyl]-1,2,4-oxadiazol-5-yl}ethyl)benzamide] the inhibition at 25 µM was 98%.
`NC(Cc1c[nH]c2ccccc12)c1nc(-c2ccc3c(c2)OC(F)(F)O3)no1` (stereo not shown) [Compound 40, 1-{3-(2,2-difluorobenzo[d] [1,3]dioxol-5-yl)-1,2,4-oxadiazol-5-yl}-2-(1H-indol-3-yl)ethan-1-amine] showed an inhibition at 25 µM of 80%.

Same assay, conditions: final concentration of the compound 25 μM; ratio of ThT fluorescence intensity with/without compound; 37° C. for 18 hours; read-out: inhibition rate against amyloid fibril formation (inhibitory activity on a scale of A to C)
`O=C(N[C@@H](CO)c1nc(-c2ccc(OC(F)(F)F)cc2)no1)c1ccc(Cl)cc1` [Compound 39, (S)-4-chloro-N-(2-hydroxy-1-{3-[4-(trifluoromethoxy)phenyl]-1,2,4-oxadiazol-5-yl}ethyl)benzamide] was tested, and the inhibition at 25 µM was > 80%.

Same assay, conditions: inhibition rate against amyloid fibril formation, final concentration of the compound 25 μM; read-out: Inhibitory activity ABC evaluation
`O=C(c1ccc(Cl)cc1)N1C[C@H](O)C[C@H]1c1nc(-c2ccc(OC(F)(F)F)cc2)no1` [Compound 34, (3R,5S)-1-(4-chlorobenzoyl)-5-{3-[4-(trifluoromethoxy)phenyl]-1,2,4-oxadiazol-5-yl}pyrrolidin-3-ol] gave an inhibition at 25 µM of 40 to 80%.
For `O=C(NC1(c2nc(-c3ccc(OC(F)(F)F)cc3)no2)CCCC1)c1cccc(Cl)c1` [Compound 35, 3-chloro-N-(1-[3-{4-(trifluoromethoxy)phenyl}-1,2,4-oxadiazol-5-yl]cyclopentyl) benzamide], the inhibition at 25 µM was < 40%.
With `O=C(Nc1ccc(Cl)cc1)NC1(c2nc(-c3ccc(OC(F)(F)F)cc3)no2)CCCC1` [Compound 36, 1-(4-chlorophenyl)-3-(1-[3-{4-(trifluoromethoxy)phenyl}-1,2,4-oxadiazol-5-yl]cyclopentyl)urea] the inhibition at 25 µM was < 40%.
`NC(Cc1c[nH]cn1)c1nc(-c2ccc(OC(F)(F)F)cc2)no1` (stereo not shown) [Compound 37, 2-(1H-imidazol-4-yl)-1-[3-{4-(trifluoromethoxy)phenyl}-1,2,4-oxadiazol-5-yl]ethan-1-amine] was tested, and the inhibition at 25 µM was < 40%.
Work on `NC(Cc1ccc(O)cc1)c1nc(-c2ccc(OC(F)(F)F)cc2)no1` (stereo not shown) [Compound 38, 4-(2-amino-2-[3-{4-(trifluoromethoxy)phenyl}-1,2,4-oxadiazol-5-yl]ethyl)phenol] yielded an inhibition at 25 µM of 40 to 80%.
In the case of `O=C(N[C@@H](CO)c1nc(-c2ccc(OC(F)(F)F)cc2)no1)c1ccc(Cl)cc1` [Compound 39, (S)-4-chloro-N-(2-hydroxy-1-{3-[4-(trifluoromethoxy)phenyl]-1,2,4-oxadiazol-5-yl}ethyl)benzamide], the inhibition at 25 µM is reported as > 80%.
`NC(Cc1c[nH]c2ccccc12)c1nc(-c2ccc3c(c2)OC(F)(F)O3)no1` (stereo not shown) [Compound 40, 1-{3-(2,2-difluorobenzo[d] [1,3]dioxol-5-yl)-1,2,4-oxadiazol-5-yl}-2-(1H-indol-3-yl)ethan-1-amine] was tested, and the inhibition at 25 µM was > 80%.
In the case of `O=C1CC(c2nc(-c3ccc(O)cc3)no2)CN1c1ccc(Cl)cc1` (stereo not shown) [Compound 41, 1-(4-chlorophenyl)-4-{3-(4-hydroxyphenyl)-1,2,4-oxadiazol-5-yl}pyrrolidin-2-one], the inhibition at 25 µM is reported as 40 to 80%.
`COc1ccc(-c2noc(C3CC(=O)N(c4ccc(Cl)cc4)C3)n2)cc1F` (stereo not shown) [Compound 42] was tested, and the inhibition at 25 µM was 40 to 80%.
In the case of `O=C1CC(c2nc(-c3ccccc3)no2)CN1c1ccc(Cl)cc1` (stereo not shown) [Compound 43, 1-(4-chlorophenyl)-4-(3-phenyl-1,2,4-oxadiazol-5-yl) pyrrolidin-2-one], the inhibition at 25 µM is reported as 40 to 80%.
With `O=C1CC(c2nc(-c3ccncc3)no2)CN1c1ccc(Cl)cc1` (stereo not shown) [Compound 44, 1-(4-chlorophenyl)-4-{3-(pyridin-4-yl)-1,2,4-oxadiazol-5-yl} pyrrolidin-2-one] the inhibition at 25 µM was < 40%.
`O=C(NC(CO)c1nc(-c2ccc(OC(F)(F)F)cc2)no1)c1c[nH]c2ccccc12` (stereo not shown) [Compound 46, N-(2-hydroxy-1-[3-{4-(trifluoro-methoxy)phenyl}-1,2,4-oxadiazol-5-yl]ethyl)-1H-indole-3-carboxamide] gave an inhibition at 25 µM of 40 to 80%.
For `O=C(c1c[nH]c2ccccc12)N1C[C@H](O)C[C@H]1c1nc(-c2ccc(OC(F)(F)F)cc2)no1` [Compound 47, ((2S,4R)-4-hydroxy-2-[3-{4-(trifluoro-methoxy)phenyl}-1,2,4-oxadiazol-5-yl]pyrrolidin-1-yl)(1H-indol-3-yl)methanone], the inhibition at 25 µM was < 40%.
`O=C1CC(c2nc(-c3ccc(OC(F)(F)F)cc3)no2)CN1c1ccc(Cl)nc1` (stereo not shown) [Compound 48, 1-(6-chloropyridin-3-yl)-4-[3-{4-(trifluoro-methoxy)phenyl}-1,2,4-oxadiazol-5-yl] pyrrolidin-2-one] gave an inhibition at 25 µM of 40 to 80%.
For `O=C1CC(c2nc(-c3ccc(OC(F)(F)F)cc3)no2)CN1c1ccc(Cl)cn1` (stereo not shown) [Compound 49, 1-(5-chloropyridin-2-yl)-4-[3-{4-(trifluoro-methoxy)phenyl}-1,2,4-oxadiazol-5-yl] pyrrolidin-2-one], the inhibition at 25 µM was 40 to 80%.
With `COc1ccc(CN2CC(c3nc(-c4ccc(OC(F)(F)F)cc4)no3)CC2=O)cc1` (stereo not shown) [Compound 50, 1-(4-methoxybenzyl)-4-[3-{4-(trifluoro-methoxy)phenyl}-1,2,4-oxadiazol-5-yl] pyrrolidin-2-one] the inhibition at 25 µM was 40 to 80%.
For `O=C1CC(c2nc(-c3ccc(OC(F)(F)F)cc3)no2)CN1c1cncc(Cl)c1` (stereo not shown) [Compound 51, 1-(5-chloropyridin-3-yl)-4-[3-{4-(trifluoro-methoxy)phenyl}-1,2,4-oxadiazol-5-yl]pyrrolidin-2-one], the inhibition at 25 µM was < 40%.
With `O=C1CC(c2nc(-c3ccc(OC(F)F)cc3)no2)CN1c1ccc(Cl)cc1` (stereo not shown) [Compound 52, 1-(4-chlorophenyl)-4-[3-{4-(difluoro-methoxy)phenyl}-1,2,4-oxadiazol-5-yl]pyrrolidin-2-one] the inhibition at 25 µM was 40 to 80%.
With `O=C1CC(c2nc(-c3ccc(OCF)cc3)no2)CN1c1ccc(Cl)cc1` (stereo not shown) [Compound 53, 1-(4-chlorophenyl)-4-[3-{4-(fluoromethoxy)phenyl}-1,2,4-oxadiazol-5-yl]pyrrolidin-2-one] the inhibition at 25 µM was 40 to 80%.
With `COc1ccc(-c2noc(C3CC(=O)N(c4ccc(Cl)cc4)C3)n2)cn1` (stereo not shown) [Compound 54, 1-(4-chlorophenyl)-4-{3-(6-methoxy-pyridin-3-yl)-1,2,4-oxadiazol-5-yl}pyrrolidin-2-one] the inhibition at 25 µM was 40 to 80%.
`O=C(c1ccc(Cl)cc1)N1CCC[C@H]1c1nc(-c2ccc(OC(F)(F)F)cc2)no1` [Compound 55, (S)-(4-chlorophenyl) (2-[3-{4-(trifluoro-methoxy)phenyl)-1,2,4-oxadiazol-5-yl}pyrrolidin-1-yl)methanone] gave an inhibition at 25 µM of 40 to 80%.
With `O=C(c1ccc(Cl)cc1)N1C[C@@H](O)C[C@H]1c1nc(-c2ccc(OC(F)(F)F)cc2)no1` [Compound 56, (4-chlorophenyl) ((2S,4S)-4-hydroxy-2-[3-{4-(trifluoro-methoxy)phenyl}-1,2,4-oxadiazol-5-yl]pyrrolidin-1-yl)methanone] the inhibition at 25 µM was < 40%.
In the case of `O=C1C[C@@H](c2nc(-c3ccc(OC(F)(F)F)cc3)no2)N(C(=O)c2ccc(Cl)cc2)C1` [Compound 57, (S)-1-(4-chlorobenzoyl)-5-{3-[4-(trifluoromethoxy)phenyl]-1,2,4-oxadiazol-5-yl}pyrrolidin-3-one], the inhibition at 25 µM is reported as < 40%.
`O=C(c1cccc(Cl)c1)N1C[C@H](O)C[C@H]1c1nc(-c2ccc(OC(F)(F)F)cc2)no1` [Compound 58, (3-chlorophenyl) ((2S,4R)-4-hydroxy-2-[3-{4-(trifluoro-methoxy)phenyl}-1,2,4-oxadiazol-5-yl]pyrrolidin-1-yl)methanone] gave an inhibition at 25 µM of 40 to 80%.
In the case of `O=C1CC(c2nc(-c3ccc(Cl)cc3)no2)CN1c1ccc(Cl)cc1` (stereo not shown) [Compound 59, 1-(4-chlorophenyl)-4-{3-(4-chlorophenyl)-1,2,4-oxadiazol-5-yl}pyrrolidin-2-one], the inhibition at 25 µM is reported as < 40%.
For `O=C(c1ccc(Cl)cn1)N1C[C@H](O)C[C@H]1c1nc(-c2ccc(OC(F)(F)F)cc2)no1` [Compound 60, (5-chloropyridin-2-yl)((2S,4R)-4-hydroxy-2-[3-{4-(trifluoro-methoxy)phenyl}-1,2,4-oxadiazol-5-yl]pyrrolidin-1-yl)methanone], the inhibition at 25 µM was < 40%.
In the case of `O=C1CC(c2nc(-c3ccc(F)cc3)no2)CN1c1ccc(Cl)cc1` (stereo not shown) [Compound 61, 1-(4-chlorophenyl)-4-{3-(4-fluorophenyl)-1,2,4-oxadiazol-5-yl} pyrrolidin-2-one], the inhibition at 25 µM is reported as 40 to 80%.
